Test results published in publication PMC12091851, “Replacing a Cereblon Ligand by a DDB1 and CUL4 Associated Factor 11 (DCAF11) Recruiter Converts a Selective Histone Deacetylase 6 PROTAC into a Pan‐Degrader” (Chemmedchem, 2025).

Assays:
MM.1S cells = assay: CellTiter-Glo cell viability assay; format: cell-based, human; conditions: for EC50: Homo sapiens, MM1.S, 72 h, n.e.: no effect (≤25 % effect up to 50 μM), read-out: EC50 MM.1S; for antiproliferative activity reduced compared to vorinostat by a factor: MM.1S cells
Method: For this purpose, the dilution series were prepared in 200-fold concentration in DMSO and further diluted to 10-fold concentration in medium. The final DMSO concentration was 0.5%. The toxicity of compounds was determined after 72 h using the CellTiter-Glo 2.0 Cell Viability Assay (Promega, Madison, WI, USA, #G9242) according to the manufacturer´s protocol. Subsequently, the luminescence was measured using a Tecan Spark (Tecan Group AG, Maennedorf, Swiss) and the half maximal effective concentration (EC50) was determined by plotting dose response curves and nonlinear regression with GraphPad Prism (GraphPad Software, San Diego, CA, USA). […] Cellular HDAC Inhibition Assay […] with minor changes. […] The DMSO-stock solutions were used to perform a serial dilution in DMSO. […] 10 µL of the substrate solution was added and incubated for 3 h under cell culture conditions. […] S8

MDA-MB-231 cells = assay: MTT cell viability assay; format: cell-based, human; conditions: 72 h, n.e.: no effect (≤25 % effect up to 50 μM); for EC50: Homo sapiens, MDA-MB-231
Method: (§1) GraphPad Prism (GraphPad Software).
(§2) 2.8. MTT Cell Viability Assay
(§3) U-87MG cells (3 × 10^3 cells/well) or MDA-MB-231 cells (5 × 10^3 cells/well) were seeded in 96-well flat-bottomed plates. After 24 h the cells were incubated with the stock solutions of the respective compounds dissolved in DMSO (highest DMSO concentration, 0.5%) to reach the final concentrations as indicated. Controls received DPBS or DMSO. Following a 71 h incubation period 20 µl of a freshly prepared 5 mg/ml MTT (3-(4,5-dimethylthiazol-2-yl)-2,5-diphenyltetrazolium bromide, AppliChem GmbH, Darmstadt, Germany) solution were added into each well. The supernatant was discarded after 1 h incubation at 37 °C and the precipitated formazan was dissolved in 200 µl DMSO/well. Absorption was measured at 570 nm with background subtraction at 690 nm using a photometric microplate reader (Thermo Scientific Multiskan EX, Thermo Fisher Scientific). Data was further subtracted by the DMSO control and normalized on DPBS. The half-maximal effective concentration (EC50) was determined by plotting dose response curves and nonlinear regression with GraphPad Prism (GraphPad Software). […]

U-87MG cells = assay: MTT cell viability assay; format: cell-based; conditions: Homo sapiens, 72 h, n.e.: no effect (≤25 % effect up to 50 μM)
Method: as §1, §2, §3

HDAC1 = HDAC1 (Homo sapiens, UniProt Q13547); assay: Simple Western immunoassay, HDAC1 levels in MM.1S cell lysates; format: cell-based; parameters: endogenous in cells; host or cells: MM.1S; conditions: MM.1S cells, 10 μM; for reduction of HDAC1 levels: 24 h
Method: Figure 3 Initial degradation screening of HDAC1 and 6 by DCAF11‐recruiting PROTACs by Simple Western™ immunoassay analysis of MM.1S cell lysates. MM.1S cells were treated with the indicated compound (10 μM) or vehicle (DMSO) for 24 h. […] Bottom: Representative images from a total of n=3 biological replicates, labeled with spacer type; w/o: without spacer.
2. Biological Experiments
No unexpected or unusually high safety hazards were encountered.
The human multiple myeloma cell line MM.1S (CRL-2974) was obtained from American Type Culture Collection (ATCC, Manassas, VA, USA). The semi-adherent cells were cultivated in RPMI 1640 medium (Catalog#21875-034, Gibco, ThermoFisher Scientific Inc., Waltham, MA, USA) supplemented with 10% FBS (PAN Biotech GmbH; Aidenbach, Germany), 100 IU/mL penicil lin, 0.1 mg/mL streptomycin (PAN Biotech GmbH) and 1 mM sodium pyruvate (ThermoFisher Scientific Inc.). […]
(PAN Biotech GmbH). All cells were cultured at 37 °C in a 5% CO2 atmosphere. Incubation times, as part of assay protocols, were performed under these conditions as well. The semi-adherent MM.1S were detached mechanically by using a cell scraper and the adhered […] were trypsinased by trypsin/EDTA (0.05%/0.02% in DPBS, PAN Biotech GmbH) whereas the U-87MG were detached by […]
2.2. Simple Western™ Immunoassay
For the cell lysates, MM.1S (0.5 × 10^6 cells/mL) or U-87MG (0.18 × 10^6 cells/mL) cells were seeded and incubated with the indicated concentration of compound or vehicle (DMSO) for the given time. The adherent cells were cultured for 24 h under cell culture conditions for attachment before treatment. Cell lysis was performed with Cell Extraction Buffer (10 mM Tris, pH 7.4, 100 mM NaCl, 1 mM EDTA, […]
SDS, 0.5% deoxycholate; Catalog# FNN0011, Thermo Fisher Scientific Inc., Waltham, MA, USA) with addition of Halt Protease Inhibitor Cocktail (100×) (Catalog# 78429, Life Technologies GmbH, Carlsbad, CA, USA) and phenylmethanesulfonyl fluoride (Catalog# 10837091001, Sigma-Aldrich, St.
Louis, MO, USA) according to manufacturer´s instructions. Protein content was determined by Pierce™ BCA Protein Assay Kit (Catalog# 23225, Thermo Fisher Scientific Inc.) according to manufacturer´s guidelines. Cell lysates were diluted to a final concentration of 1 mg/mL and denatured according to manufacturer’s guidelines. Anti-HDAC1 (Catalog# 5356S, Cell Signaling Technology, Denver, MA, USA), anti-HDAC6 (Catalog#7558S, Cell Signaling Technology) and anti-GAPDH (Catalog# 2118S, […]
Fluorescence Separation 8x25 Capillary Cartridges (Catalog# SM-FL004-1, Protein Simple, Bio-Techne, Minneapolis, MN, USA) were used for separation and the Anti-Mouse Detection Module (Catalog# DM-002, Protein Simple) was used for detection with addition of 20x Anti-Rabbit HRP […]
Conjugate (Catalog# 043-426, Protein Simple) according to manufacturer´s instructions. The assay was performed with the Jess Simple Western System (catalog# 004-650, Protein Simple), according to manufacturer´s settings. Evaluation and quantification was performed with the compass software (6.2.0, Protein Simple). GraphPad Prism (GraphPad Software, San Diego, CA, USA) was used for normalization, statistical analysis and bar graph creation. Significance testing was performed with a one-way analysis of variance (ANOVA). […]
of each mean compared to a reference mean value. […]
AMC (Catalog# 233691-67-3, BLD pharma) was prepared with and without IGEPAL CA-630 (0.5%, Catalog# J61055, Alfa Aesar). 10 µL of the substrate solution was added and incubated for 3 h under cell culture conditions. The reaction was stopped with 100 µL of stop solution (50 mM Tris-HCl, […]
Trypsin) and incubated for 1.5 h under cell culture conditions. The fluorescence signal was measured by a FLUOstar OPTIMA microplate reader (BMG labtech, Ortenburg, Germany) at excitation of λ = 355 nm and emission of λ = 460 nm. All Compounds were tested in two independent experiments in duplicates and IC50 was determined by nonlinear regression with GraphPad Prim.

HDAC1, sequence (Q13547 whole entry): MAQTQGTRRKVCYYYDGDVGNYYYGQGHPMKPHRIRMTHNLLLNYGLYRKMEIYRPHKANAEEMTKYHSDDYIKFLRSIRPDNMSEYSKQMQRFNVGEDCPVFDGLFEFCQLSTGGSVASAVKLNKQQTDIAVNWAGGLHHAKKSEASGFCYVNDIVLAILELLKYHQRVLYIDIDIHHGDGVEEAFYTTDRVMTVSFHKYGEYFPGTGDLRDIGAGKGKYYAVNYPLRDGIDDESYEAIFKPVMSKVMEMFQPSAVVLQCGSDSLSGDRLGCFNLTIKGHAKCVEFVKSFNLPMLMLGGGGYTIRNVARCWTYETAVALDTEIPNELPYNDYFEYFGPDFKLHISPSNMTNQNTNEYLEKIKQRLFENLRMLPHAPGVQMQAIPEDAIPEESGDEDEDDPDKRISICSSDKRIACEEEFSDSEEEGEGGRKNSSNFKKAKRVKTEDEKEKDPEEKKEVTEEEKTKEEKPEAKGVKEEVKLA

With `O=C(CCCCCCNC(=O)c1ccc(N(C(=O)CCl)C(C(=O)NCc2ccccc2)c2ccc(Cl)c(Cl)c2)cc1)NO` (stereo not shown) [Compound 2] the EC50 (MM.1S cells) was 1.5 ± 0.1 µM, the “antiproliferative activity reduced compared to vorinostat by a factor” value (MM.1S cells) was 3 – 6 and the EC50 (MDA-MB-231 cells) was 8.8 ± 3.2 µM. For the same molecule, the EC50 (U-87MG cells) was 12 ± 3 µM and the “reduction of HDAC1 levels” value (HDAC1) was 55%.
With `O=CN(CCCCCCCCCCCC(=O)Nc1ccc(C(=O)NCCCCCCC(=O)NO)cc1)C(C(=O)NCc1ccccc1)c1ccc(Cl)c(Cl)c1` (stereo not shown) [Compound 1j-nc] the EC50 (MM.1S cells) was 8.6 ± 1.5 µM, the “EC50 MDA-MB-231” value (MDA-MB-231 cells) was “n.e” and the “EC50 MDA-MB-231” value (MDA-MB-231 cells; listed as 1j‐nc) was “no activity”. The EC50 (U-87MG cells) was 43 ± 18 µM and the “effect on HDAC1 protein levels” value (HDAC1; 14 h) was “not able to affect the protein levels of HDAC1 and 6”.
For `O=C(CCCCCCNC(=O)c1ccc(NC(=O)CCCCCCCCCCCN(C(=O)CCl)C(C(=O)NCc2ccccc2)c2ccc(Cl)c(Cl)c2)cc1)NO` (stereo not shown) [Compound 1j], the EC50 (MM.1S cells) was 2.8 ± 0.1 µM, the “antiproliferative activity reduced compared to vorinostat by a factor” value (MM.1S cells) was 3 – 6 and the EC50 (MDA-MB-231 cells) was 28 ± 10 µM. The EC50 (U-87MG cells) was 30 ± 5 µM, the “reduction of HDAC1 levels” value (HDAC1) was 71% and the “time dependent degradation of HDAC1” value (HDAC1; after 6 h) was “significant degradation”.
